Experimental data as given in ChEMBL document CHEMBL5154806, “Synthesis and Profiling of Highly Selective Inhibitors of Methyltransferase DOT1L Based on Carbocyclic C-Nucleosides” (J Med Chem, 2022).
Active and inactive are the calls of the source. The calls are words filed in the database; no cut-off is given here.

Experiments:
[1] = Tmax in fasted BALB/c mouse at 5 mg/kg, iv administered upto 600 mins by HPLC-MS/MS analysis; assay type: ADME, organism-based; details: in vivo
[2] = molecular target: T1, Histone-lysine N-methyltransferase, H3 lysine-79 specific (Homo sapiens, UniProt Q8TEK3); assay: Inhibition of human DOT1L by hotspot PMT activity assay
Target sequence in this assay (Q8TEK3 whole entry): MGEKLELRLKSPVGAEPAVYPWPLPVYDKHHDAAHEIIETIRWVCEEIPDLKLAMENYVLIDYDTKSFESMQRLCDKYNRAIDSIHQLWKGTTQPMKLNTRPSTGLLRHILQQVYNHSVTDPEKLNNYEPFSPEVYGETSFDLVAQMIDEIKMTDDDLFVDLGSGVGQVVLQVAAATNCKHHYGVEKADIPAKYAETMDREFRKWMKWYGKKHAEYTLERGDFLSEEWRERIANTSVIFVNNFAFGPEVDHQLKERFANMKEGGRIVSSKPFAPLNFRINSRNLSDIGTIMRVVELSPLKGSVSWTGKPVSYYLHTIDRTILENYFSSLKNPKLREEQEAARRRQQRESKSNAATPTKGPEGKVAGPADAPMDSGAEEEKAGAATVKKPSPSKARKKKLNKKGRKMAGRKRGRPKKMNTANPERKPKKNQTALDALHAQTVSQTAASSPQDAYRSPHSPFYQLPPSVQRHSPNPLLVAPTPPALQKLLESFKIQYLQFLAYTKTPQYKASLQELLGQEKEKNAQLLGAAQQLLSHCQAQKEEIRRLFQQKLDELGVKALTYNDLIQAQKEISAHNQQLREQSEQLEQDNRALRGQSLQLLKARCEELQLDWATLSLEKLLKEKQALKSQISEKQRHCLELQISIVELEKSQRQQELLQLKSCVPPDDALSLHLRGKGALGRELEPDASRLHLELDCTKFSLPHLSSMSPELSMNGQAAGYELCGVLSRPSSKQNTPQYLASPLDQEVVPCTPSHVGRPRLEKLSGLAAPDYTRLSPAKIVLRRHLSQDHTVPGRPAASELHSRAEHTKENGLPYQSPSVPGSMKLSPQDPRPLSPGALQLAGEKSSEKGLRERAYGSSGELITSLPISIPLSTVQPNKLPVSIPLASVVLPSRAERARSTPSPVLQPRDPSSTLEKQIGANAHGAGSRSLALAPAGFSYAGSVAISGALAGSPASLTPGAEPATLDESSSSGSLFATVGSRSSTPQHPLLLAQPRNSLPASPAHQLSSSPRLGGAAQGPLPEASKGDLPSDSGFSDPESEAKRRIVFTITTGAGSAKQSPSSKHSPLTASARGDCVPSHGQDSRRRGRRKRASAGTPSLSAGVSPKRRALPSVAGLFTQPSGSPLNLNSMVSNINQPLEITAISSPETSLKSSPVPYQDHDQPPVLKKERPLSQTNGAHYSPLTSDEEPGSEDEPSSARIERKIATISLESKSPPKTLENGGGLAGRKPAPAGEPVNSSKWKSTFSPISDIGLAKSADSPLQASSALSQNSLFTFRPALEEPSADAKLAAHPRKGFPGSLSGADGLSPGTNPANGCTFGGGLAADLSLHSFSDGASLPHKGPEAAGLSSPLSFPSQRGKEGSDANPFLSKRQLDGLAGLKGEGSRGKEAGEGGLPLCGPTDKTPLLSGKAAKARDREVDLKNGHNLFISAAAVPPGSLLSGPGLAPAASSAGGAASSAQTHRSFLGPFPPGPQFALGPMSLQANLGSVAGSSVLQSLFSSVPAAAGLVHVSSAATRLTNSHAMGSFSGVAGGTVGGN

[3] = molecular target: T1, Histone-lysine N-methyltransferase, H3 lysine-79 specific; assay: Inhibition of DOT1L in human SU-DHL-4 cells assessed as decrease in H3K79 methylation at 1 to 10 uM using histone H3 as substrate incubated for 3 days by immunoblotting assay; assay type: cell-based; details: dose 1-10 µM, time 3.0 day, DDE = dose-dependent effect
Target sequence in this assay (Q8TEK3 whole entry, looked up): as the sequence (Q8TEK3 whole entry) above

MOLM-13 [4] = assay: Cytotoxicity against human MOLM-13 cells assessed as reduction of cell viability at 20 to 40 uM incubated for 5 to 15 days by DiOC6/ propidium staining based flow cytometry analysis; assay type: functional; details: dose 20-40 µM, time 5-15 day
[5] = Elimination rate constant in fasted BALB/c mouse at 5 mg/kg, iv administered upto 600 mins by HPLC-MS/MS analysis; assay type: ADME, organism-based; details: BALB/c, in vivo
[6] = Volume of distribution in fasted BALB/c mouse at 20 mg/kg, iv administered upto 600 mins by HPLC-MS/MS analysis; assay type: ADME, organism-based; details: in vivo
[7] = Clearance in fasted BALB/c mouse at 5 mg/kg, iv administered upto 600 mins by HPLC-MS/MS analysis; assay type: ADME, organism-based; details: in vivo
[8] = molecular target: T1, Histone-lysine N-methyltransferase, H3 lysine-79 specific; assay: Inhibition of DOT1L in human MOLM-13 cells assessed as decrease in H3K79 methylation at 1 to 10 uM using histone H3 as substrate incubated for 3 days by immunoblotting assay; assay type: cell-based; details: dose 1-10 µM, time 3.0 day, DDE = dose-dependent effect
Target sequence in this assay (Q8TEK3 whole entry, looked up): as the sequence (Q8TEK3 whole entry) above

[9] = Volume of distribution in fasted BALB/c mouse at 5 mg/kg, iv administered upto 600 mins by HPLC-MS/MS analysis; assay type: ADME, organism-based; details: in vivo
MOLM-13 [10] = assay: Cytotoxicity against human MOLM-13 cells assessed as metabolic activity at 1 to 40 uM incubated for 10 to 15 days by WST-1 assay; assay type: functional, cell-based; details: dose 1-40 µM, time 10-15 day
[11] = AUC (0 to infinity) in fasted BALB/c mouse at 20 mg/kg, iv administered upto 600 mins by HPLC-MS/MS analysis; assay type: ADME, organism-based; set-up: dose 20 mg/kg, time < 600 min, route iv; details: in vivo
[12] = molecular target: T1, Histone-lysine N-methyltransferase, H3 lysine-79 specific; assay: Binding affinity to human DOT1L assessed as binding free energy difference
Target sequence in this assay (Q8TEK3 whole entry, looked up): as the sequence (Q8TEK3 whole entry) above

[13] = AUC (0 to infinity) in fasted BALB/c mouse at 5 mg/kg, iv administered upto 600 mins by HPLC-MS/MS analysis; assay type: ADME, organism-based; set-up: dose 5 mg/kg, time < 600 min, route iv; details: in vivo
[14] = molecular target: T1, Histone-lysine N-methyltransferase, H3 lysine-79 specific; assay: Inhibition of DOT1L in human OCI-AML5 cells assessed as decrease in H3K79 methylation at 1 to 10 uM using histone H3 as substrate incubated for 5 days by immunoblotting assay; assay type: cell-based; details: dose 1-10 µM, time 5.0 day, DDE = dose-dependent effect
Target sequence in this assay (Q8TEK3 whole entry, looked up): as the sequence (Q8TEK3 whole entry) above

[15] = molecular target: T1, Histone-lysine N-methyltransferase, H3 lysine-79 specific; assay: Inhibition of DOT1L in human SU-DHL-4 cells assessed as decrease in H3K79 methylation at 1 to 10 uM using histone H3 as substrate incubated for 5 days by immunoblotting assay; assay type: cell-based; details: dose 1-10 µM, time 5.0 day, DDE = dose-dependent effect
Target sequence in this assay (Q8TEK3 whole entry, looked up): as the sequence (Q8TEK3 whole entry) above

MOLM-13 [16] = assay: Cytotoxicity against human MOLM-13 cells assessed as reduction of cell viability up to 10 uM incubated for 72 hrs by celltiter-glo assay; assay type: functional, cell-based; details: MOLM-13, 72 h
OCI-AML-3 = assay: Cytotoxicity against human OCI-AML-3 cells assessed as reduction of cell viability at 20 to 40 uM incubated for 5 to 15 days by DiOC6/ propidium staining based flow cytometry analysis; assay type: functional; details: dose 20-40 µM, time 5-15 day
[17] = Acute toxicity in BALB/c mouse at 20 mg/kg,iv; assay type: organism-based; details: in vivo
SUD4 = assay: Cytotoxicity against human SU-DHL-4 cells assessed as reduction of cell viability at 20 to 40 uM incubated for 5 to 15 days by DiOC6/ propidium staining based flow cytometry analysis; assay type: functional; details: dose 20-40 µM, time 5-15 day
[18] = molecular target: T1, Histone-lysine N-methyltransferase, H3 lysine-79 specific; assay: Inhibition of DOT1L in human MOLM-13 cells assessed as decrease in H3K79 methylation at 1 to 10 uM using histone H3 as substrate incubated for 5 days by immunoblotting assay; assay type: cell-based; details: dose 1-10 µM, time 5.0 day, DDE = dose-dependent effect
Target sequence in this assay (Q8TEK3 whole entry, looked up): as the sequence (Q8TEK3 whole entry) above

[19] = Tmax in fasted BALB/c mouse at 20 mg/kg, iv administered upto 600 mins by HPLC-MS/MS analysis; assay type: ADME, organism-based; details: in vivo
MOLM-13 [20] = assay: Downregulation of MEIS1 gene in human MOLM-13 cells at 10 uM measured after 3 to 10 days by qPCR analysis; assay type: functional, cell-based; details: time 3-10 day
[21] = AUC (0 to t) in fasted BALB/c mouse at 20 mg/kg, iv administered upto 600 mins by HPLC-MS/MS analysis; assay type: ADME, organism-based; set-up: dose 20 mg/kg, time < 600 min, route iv; details: in vivo
MV4-11 = assay: Cytotoxicity against human MV4-11 cells assessed as reduction of cell viability up to 10 uM incubated for 72 hrs by celltiter-glo assay; assay type: functional, cell-based; details: MV4-11, 72 h
[22] = Elimination rate constant in fasted BALB/c mouse at 20 mg/kg, iv administered upto 600 mins by HPLC-MS/MS analysis; assay type: ADME, organism-based; details: in vivo
[23] = Microsomal stability in BALB/c mouse liver microsomes assessed as intrinsic clearance; assay type: ADME, Microsome; details: read-out: CLH
MOLM-13 [24] = assay: Downregulation of HOXA9 gene in human MOLM-13 cells at 10 uM measured after 3 to 10 days by qPCR analysis; assay type: functional, cell-based; details: time 3-10 day
[25] = Cmax in fasted BALB/c mouse at 5 mg/kg, iv administered upto 600 mins by HPLC-MS/MS analysis; assay type: ADME, organism-based; set-up: time < 600 min, dose 5 mg/kg, route iv; details: in vivo
SU-DHL-5 = assay: Cytotoxicity against human SU-DHL-5 cells assessed as reduction of cell viability up to 10 uM incubated for 72 hrs by celltiter-glo assay; assay type: functional, cell-based; details: SU-DHL-5, 72 h
[26] = Cmax in fasted BALB/c mouse at 20 mg/kg, iv administered upto 600 mins by HPLC-MS/MS analysis; assay type: ADME, organism-based; set-up: time < 600 min, dose 20 mg/kg, route iv; details: in vivo
[27] = Half life in fasted BALB/c mouse at 20 mg/kg, iv administered upto 600 mins by HPLC-MS/MS analysis; assay type: ADME, organism-based; details: in vivo
[28] = molecular target: T1, Histone-lysine N-methyltransferase, H3 lysine-79 specific; assay: Inhibition of DOT1L in human OCI-AML5 cells assessed as decrease in H3K79 methylation at 1 to 10 uM using histone H3 as substrate incubated for 3 days by immunoblotting assay; assay type: cell-based; details: dose 1-10 µM, time 3.0 day, DDE = dose-dependent effect
[29] = Clearance in fasted BALB/c mouse at 20 mg/kg, iv administered upto 600 mins by HPLC-MS/MS analysis; assay type: ADME, organism-based; details: in vivo
SK-N-MC = assay: Cytotoxicity against human SK-N-MC cells assessed as reduction of cell viability up to 10 uM incubated for 72 hrs by celltiter-glo assay; assay type: functional, cell-based
[30] = Half life in fasted BALB/c mouse at 5 mg/kg, iv administered upto 600 mins by HPLC-MS/MS analysis; assay type: ADME, organism-based; details: BALB/c, in vivo
[31] = Metabolic stability in BALB/c mouse liver microsomes assessed as parent compound remaining measured after 40 mins; assay type: ADME, Microsome; details: read-out: Stability
[32] = AUC (0 to t) in fasted BALB/c mouse at 5 mg/kg, iv administered upto 600 mins by HPLC-MS/MS analysis; assay type: ADME, organism-based; set-up: time < 600 min, dose 5 mg/kg, route iv; details: in vivo

Structure (SMILES): CC(C)N(C[C@H]1C[C@@H](c2ccc3c(N)ncnn23)[C@H](O)[C@@H]1O)[C@H]1C[C@@H](CCc2nc3cc(C(C)(C)C)ccc3[nH]2)C1
- Tmax [1]: 5 min
- IC50 [2]: 0.0021 µM
- Activity [3]: Dde
- Activity (MOLM-13 [4]): Active
- k el at 10 h [5]: 0.000202 s⁻¹
- Vd [6]: 1.29 L/kg
- clearance [7]: 14.2 mL/min/kg
- Activity [8]: Dde
- Vd [9]: 1.18 L/kg
- Activity (MOLM-13 [10]): Active
- AUC(0-inf) [11]: 35000 ng·h/mL
- deltaG [12]: -0.717 kcal/mol
- AUC(0-inf) [13]: 5850 ng·h/mL
- Activity [14]: Dde
- Activity [15]: Dde
- EC50 (MOLM-13 [16]): 7.7 µM
- Activity (OCI-AML-3): Active
- Activity [17]: Non-Toxic
- Activity (SUD4): Active
- Activity [18]: Dde
- Tmax [19]: 5 min
- Activity (MOLM-13 [20]): Active
- AUC(0-t) at 10 h [21]: 34700 ng·h/mL
- EC50 (MV4-11): 1.7 µM
- k el at 10 h [22]: 0.000123 s⁻¹
- microsomal CLint [23]: 56 µL/min/mg
- Activity (MOLM-13 [24]): Active
- Cmax [25]: 20.6 µg/mL
- EC50 (SU-DHL-5): 9 µM
- Cmax [26]: 91.2 µg/mL
- half-life [27]: 93.6 min
- Activity [28]: Dde
- clearance [29]: 9.54 mL/min/kg
- EC50 (SK-N-MC): 8.8 µM
- half-life [30]: 57.2 min
- remaining at 40 min [31]: 41%
- AUC(0-t) at 10 h [32]: 5800 ng·h/mL
